Experimental data published in a compilation of properties of binary mixtures (doi:10.1016/j.molliq.2014.09.006).

Test: xn = mol fraction of the nth substance listed
Details: 101 kPa

CCCC[n+]1ccn(C)c1.O=[N+]([O-])[O-] + CCO
viscosity (283.15 K, x2 = 0): 400 mPa·s | viscosity (283.15 K, x2 = 0.2): 121 mPa·s | viscosity (283.15 K, x2 = 0.4): 46.4 mPa·s | viscosity (283.15 K, x2 = 0.6): 18.9 mPa·s | viscosity (288.15 K, x2 = 0): 290 mPa·s | viscosity (288.15 K, x2 = 0.2): 93 mPa·s | viscosity (288.15 K, x2 = 0.4): 37.8 mPa·s | viscosity (288.15 K, x2 = 0.6): 15.9 mPa·s | viscosity (293.15 K, x2 = 0): 210 mPa·s | viscosity (293.15 K, x2 = 0.2): 73 mPa·s | viscosity (293.15 K, x2 = 0.6): 13.5 mPa·s | viscosity (298.15 K, x2 = 0.4): 26.1 mPa·s | viscosity (298.15 K, x2 = 0.6): 11.6 mPa·s | viscosity (303.15 K, x2 = 0): 121 mPa·s | viscosity (303.15 K, x2 = 0.2): 47.1 mPa·s | viscosity (303.15 K, x2 = 0.4): 22 mPa·s | viscosity (308.15 K, x2 = 0): 94 mPa·s | viscosity (308.15 K, x2 = 0.4): 18.8 mPa·s | viscosity (308.15 K, x2 = 0.6): 8.84 mPa·s | viscosity (313.15 K, x2 = 0): 74 mPa·s | viscosity (313.15 K, x2 = 0.4): 16.3 mPa·s | viscosity (313.15 K, x2 = 0.6): 7.81 mPa·s | viscosity (318.15 K, x2 = 0): 59.4 mPa·s | viscosity (318.15 K, x2 = 0.6): 6.95 mPa·s | viscosity (323.15 K, x2 = 0): 48.2 mPa·s | viscosity (323.15 K, x2 = 0.2): 22.8 mPa·s | viscosity (323.15 K, x2 = 0.4): 12.4 mPa·s | viscosity (323.15 K, x2 = 0.6): 6.23 mPa·s | viscosity (328.15 K, x2 = 0): 39.6 mPa·s | viscosity (328.15 K, x2 = 0.2): 19.6 mPa·s | viscosity (328.15 K, x2 = 0.4): 11 mPa·s | viscosity (328.15 K, x2 = 0.6): 5.62 mPa·s | viscosity (333.15 K, x2 = 0): 32.9 mPa·s | viscosity (333.15 K, x2 = 0.2): 16.9 mPa·s | viscosity (333.15 K, x2 = 0.4): 9.8 mPa·s | viscosity (333.15 K, x2 = 0.6): 5.1 mPa·s
